Where two headings read alike, the source gives them in different places.
Columns and labels:
[1] = test system: mouse with cerulein-induced pancreatitis; test: Cerulein-induced acute pancreatitis in mouse: amylase and lipase activity in plasma; format: in vivo; conditions: for inhibition rate of amylase activity: Example 2, FIG. 2, drug 3.2 mg/Kg; for effect on amylase in blood of mice administered with cerulein / effect on lipase in blood of mice administered with cerulein: Example 1, FIG. 1, under the dorsal skin 15 min before first cerulein, ketanserin 3.2 mg/Kg
Protocol: Receptor subtypes involved in the onset of pancreatitis were examined with the use of antagonists of 5-HT2A receptor, 5-HT2B receptor, and 5-HT2C receptor. A mouse having acute pancreatitis induced by excessive administration of cerulein was used as an animal model. This model is not affected by food consumption, which is different from CDE pancreatitis, and thus it is possible to obtain constant pathologic features and analyze data more accurately.
An aqueous solution of cerulein (0.05 mg/Kg) was administered to a five-week-old mouse every one hour five times by hypodermic injection. Each 5-HT2 antagonist suspended in a solvent (0.5% methylcellulose in saline) was administered under the dorsal skin 15 minutes before the first administration of cerulein. […] Further, only the solvent was administered to the control group (group administered with cerulein alone) under the dorsal skin. One hour after the final administration, blood was collected, and amylase activity and lipase activity in the plasma were determined.
Effects of various 5-HT2A antagonists on amylase activity and lipase activity in plasma of cerulein-induced pancreatic mice were examined. […] Then the amylase activity and the lipase activity in plasma were determined.
Effects of various 5-HT2 antagonists on amylase activity and lipase activity in plasma of cerulein-induced pancreatic mice were examined. […] Then the amylase activity and the lipase activity in plasma were determined.

5-HT2C receptor = biological target: T1, 5-HT2C receptor (Homo sapiens, UniProt P28335); conditions: literature values, cited from earlier work
T1 construct: expressed in transfected cells; host or cells: HEK-293 (membrane fractions)
T1 sequence (P28335 33-458): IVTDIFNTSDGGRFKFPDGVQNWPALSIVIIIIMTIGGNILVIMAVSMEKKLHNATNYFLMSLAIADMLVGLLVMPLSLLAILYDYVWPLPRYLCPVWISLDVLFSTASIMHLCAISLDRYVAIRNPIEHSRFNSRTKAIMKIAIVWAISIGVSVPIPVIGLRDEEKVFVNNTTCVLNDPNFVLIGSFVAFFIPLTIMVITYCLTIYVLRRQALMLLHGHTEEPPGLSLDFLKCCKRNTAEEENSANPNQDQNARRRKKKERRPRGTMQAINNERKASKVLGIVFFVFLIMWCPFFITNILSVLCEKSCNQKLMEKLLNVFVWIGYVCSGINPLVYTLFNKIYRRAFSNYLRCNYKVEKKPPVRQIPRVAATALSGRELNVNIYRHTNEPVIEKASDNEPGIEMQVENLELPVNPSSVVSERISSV

5-HT2B receptor = biological target: T2, 5-HT2B receptor (Homo sapiens, UniProt P41595); conditions: literature values, cited from earlier work
T2 construct: expressed in transfected cells; host or cells: CHO-K1 (membrane fractions)

[2] = plasma, cerulein-induced pancreatitis mouse
[3] = Bonhaus et al. (1995), second block of Table 1

T2 sequence (P41595 whole entry): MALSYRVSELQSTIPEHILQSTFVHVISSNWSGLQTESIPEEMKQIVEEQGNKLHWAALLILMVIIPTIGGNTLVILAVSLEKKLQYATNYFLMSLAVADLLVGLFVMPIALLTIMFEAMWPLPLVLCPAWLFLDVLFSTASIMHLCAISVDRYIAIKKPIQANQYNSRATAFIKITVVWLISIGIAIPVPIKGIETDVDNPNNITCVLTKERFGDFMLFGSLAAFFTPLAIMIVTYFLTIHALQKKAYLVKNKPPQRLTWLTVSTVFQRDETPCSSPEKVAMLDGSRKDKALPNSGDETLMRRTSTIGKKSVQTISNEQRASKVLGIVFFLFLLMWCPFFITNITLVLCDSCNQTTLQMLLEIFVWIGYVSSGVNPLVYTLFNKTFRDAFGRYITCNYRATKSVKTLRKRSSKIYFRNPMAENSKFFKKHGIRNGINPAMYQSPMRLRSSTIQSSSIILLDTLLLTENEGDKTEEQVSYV

| Structure (SMILES) | inhibition rate of amylase activity [1, 2] | effect on amylase in blood of mice administered with cerulein [1] | effect on lipase in blood of mice administered with cerulein [1] | also measured |
| --- | --- | --- | --- | --- |
| O=C1NCN(c2ccccc2)C12CCN(CCCOc1ccc(F)cc1)CC2 [AMI-193] | 17% |  |  | 5-HT2C pKi ± SEM (5-HT2C receptor; Knight et al. (2004)): 5.81 ± 0.16 |
| OC(c1ccccc1)C1CCN(CCc2ccccc2)CC1 (stereo not drawn) [MDL11939] | −4% |  |  |  |
| CN1C[C@H](CNC(=O)OCc2ccccc2)C[C@@H]2c3cccc4c3c(cn4C)C[C@H]21 [Metergoline, metergoline] |  |  |  | inhibition rate of amylase ([1]; Example 3, FIG. 3, drug 3.2 mg/kg, plasma, cerulein-induced pancreatitis mouse): 30% |
| Cc1cc(NC(=O)Nc2ccc3c(ccn3C)c2)sn1 [SB204741] |  | didn't show any effect | didn't show any effect | 5-HT2B pKi ± SEM (5-HT2B receptor; [3]): 7.1 ± 0.08; 5-HT2B pKi ± SEM (5-HT2B receptor; Knight et al. (2004)): 6.90 ± 0.27 |
| Cc1cc2c(cc1Cl)N(C(=O)Nc1ccc(Oc3cccnc3C)nc1)CC2 [SB242084] |  | didn't show any effect | didn't show any effect |  |
| O=C(c1ccc(F)cc1)C1CCN(CCn2c(=O)[nH]c3ccccc3c2=O)CC1 [ketanserin] | 37% | significantly decreased | significantly decreased |  |
| Cc1nc2n(c(=O)c1CCN1CCC(c3noc4cc(F)ccc34)CC1)CCCC2 [risperidone] | 52% |  |  |  |
| O=C(CCCN1CCC2(CC1)C(=O)NCN2c1ccccc1)c1ccc(F)cc1 [spiperone] |  |  |  | 5-HT2C pKi ± SEM (5-HT2C receptor; [3]): <6.00 |
